We go through 1 compound from patent US4318864A, “Process for making s-phenenyltris(sulfonylimino)tri-benzene mono- and di-sulfonic acids and salts” (American Cyanamid Company, priority 1980, dated 1982).

One may read the inhibition as the change of the read-out against control, counted positive when it falls.

Where a name gives a salt, the structure may show the parent alone. Read-outs that look alike come from different tables or passages of the source.

One experiment addresses activated human C1 (Homo sapiens, UniProt P09871). The experiment is described as follows: Test Code 026 (C1 inhibitor). Type of experiment: biochemical. The settings on record: serial dilution assay, twofold dilutions; higher well number indicates higher activity.
In experiment [1] the test system is complement activity in serum. The experiment is described as follows: Guinea Pig Intraperitoneal Test (GPIP). Type of experiment: in vivo. The settings on record: Cavia porcellus, ip, 200 mg./kg. i.p.
For experiment [2], the system named is late components of human complement (C3-C9). The experiment can be described thus: Test Code 035 (C3-C9 inhibitor), lysis of EAC 142. Type of experiment: biochemical. On the set-up: key: N = Negative. The settings on record: serial dilution assay, twofold dilutions.
The subject of a further experiment is shunt pathway. The experiment can be described thus: Test Code 036 (C-Shunt inhibitor), lysis of human erythrocytes via cobra venom factor activated shunt pathway. It counts as biochemical. Also noted: key: N = Negative. The settings on record: serial dilution assay, twofold dilutions.

For the compound `O=S(=O)(O)c1cc(NS(=O)(=O)c2cc(S(=O)(=O)Nc3cc(S(=O)(=O)O)cc(S(=O)(=O)O)c3)cc(S(=O)(=O)Nc3cc(S(=O)(=O)O)cc(S(=O)(=O)O)c3)c2)cc(S(=O)(=O)O)c1` [5,5',5"-[s-Phenenyltris(sulfonylimino)]tri-m-benzenedisulfonic acid, hexasodium salt], the “Cl 026 Wells” value on activated human C1 is listed as “+8 Wells”. For the same compound, the inhibition at 200 mg/kg in experiment [1] (0.5 h, 30 min after injection, read-out: In Vivo Activity (Guinea pig) % Inhibition Intraperitoneal, 30 min) is -75%; in experiment [1] (1 h, 60 min after injection, read-out: In Vivo Activity (Guinea pig) % Inhibition Intraperitoneal, 60 min), -75%; in experiment [1] (2 h, 120 min after injection, read-out: In Vivo Activity (Guinea pig) % Inhibition Intraperitoneal, 120 min), -81%. Moreover, the “C-Late 035 Wells” value in experiment [2] is reported as “N”. For the same compound, in the experiment with shunt pathway, the “Shunt Inhibition 036 Wells” value is listed as “N”.
